Measured values reported in patent US9561265B2, “KIF20A epitope peptides for TH1 cells and vaccines containing the same” (ONCOTHERAPY SCIENCE, INC., priority 2012, dated 2017).

How the values were obtained:
[1] = test system: KIF20A-A24 (66-75) SP-specific CD8^+ T-cells; experiment: Expansion and CD107a expression of KIF20A-A24 (66-75) SP-specific CTLs cultured with LP-specific Th cells; type: cell-based, human; settings: donor HDK5
Description: [FIG. 7C-D] In Part C, CD107a expression of KIF20A-A24 (66-75) SP-specific CD8^+ T-cells expanded by activated KIF20A (809-833) LP-specific Th cells. KIF20A (809-833) LP-specific bulk CD4^+ T-cells and KIF20A-A24 (66-75) SP-specific bulk CD8^+ T-cells derived from HLA-A24^+/DR15^+ (HDK5) were cultured with autologous DCs in the presence of KIF20A-A24 (66-75) SP (SP alone), KIF20A-A24 (66-75) SP+Control LP (Control LP+SP), or KIF20A-A24 (66-75) SP+KIF20A (809-833) LP (KIF20A (809-833)-LP+SP) without addition of any cytokine. After 1-week in vitro culture with peptides, the cultured cells were stained with PE-labeled tetramer of the HLA-A*24:02/KIF20A-A24 (67-75) complex and PerCP-labeled anti-human CD8 mAb. Data are presented as the mean+/−SD of triplicate assays. Representative data from 3 independent experiments with similar results are shown. In Part D, After 1-week in vitro culture with peptides, the cultured cells were re-stimulated with KIF20A-A24 (66-75) SP and stained with PE-labeled tetramer of the HLA-A*24:02/KIF20A-A24 (67-75) complex, FITC-labeled anti-human CD107a mAb, and PerCP-labeled anti-human CD8 mAb. The absolute number of KIF20A-A24 (66-75) SP-specific CTLs expressing CD107a on the cell surface after re-stimulation with KIF20A-A24 (66-75) SP was shown. Data are presented as the mean+/−SD of triplicate assays. […]

[2] = test system: KIF20A-A24 (66-75)-specific CD8^+ T cells; experiment: Stimulation of PBMC with the KIF20A long peptide (tetramer staining, IFN-gamma ELISPOT); type: cell-based, human
Description: The immune response of Th cells to APCs pulsed with peptides and proteins were assessed by IFN-gamma ELISPOT assays (Human IFN-gamma ELISPOT kit, BD Biosciences) as described previously (Tomita Y, et al. Cancer Sci; 102: 697-705.). Briefly, the frequency of peptide-specific CD4^+ T cells producing IFN-gamma per 3×10^4 bulk CD4^+ T cells upon stimulation with peptide-pulsed PBMCs (3×10^4), or 1×10^4 bulk CD4^+ T cells upon stimulation with peptide-pulsed L-cells (5×10^4/well) expressing HLA-DR was analyzed. The frequency of cells producing IFN-gamma per 1×10^5 CTLs upon stimulation with peptide-pulsed T2 cells (2×10^4/well) or C1R-A2402 cells (2×10^4/well) was also analyzed. Alternatively, 5×10^3 protein-loaded DCs were co-cultured with 2×10^4 CD4^+ T cell clones/well. The protein-loaded mature DCs were prepared from positively isolated CD14^+ cells (day 0) as described previously (Harao M, et al. Int J Cancer 2008; 123: 2616-25.). On day 5, the DCs were cultured in the presence of the recombinant KIF20A (50 micro-g/ml) and OK432. The protein-loaded mature DCs were harvested on day 7, washed and used as stimulator in IFN-gamma ELISPOT assays. To determine restriction HLA molecules involved in antigen presentation, blocking of antigen-induced IFN-gamma production was investigated by adding anti-HLA-DR mAb (L243, Biolegend), anti-HLA-DP mAb, (B7/21, abcam), anti-human HLA-DQ mAb (SPV-L3, abcam), or anti-HLA class I mAb, (W6/32, abcam). All mAbs were used at a final concentration of 5 micro g/ml. All assessments of IFN-gamma ELISPOT assays were carried out in duplicate or triplicate, and results corresponded to mean values.
To assess the induction of KIF20A-A24 (66-75) SP-specific CTLs from HLA-A24-positive donors by the simulation with KIF20A (60-84) LP in vitro, PBMC (2×10^6/well of 24-well plates) were incubated with KIF20A-derived LPs (7 micro-M) for 2 weeks without addition of any cytokine. On day 0 and 7, KIF20A-derived LPs (7 micro-M) was added, then on day 14 of in vitro stimulation with LPs, the cells were harvested, stained with a PE-labeled tetramer of the HLA-A*24:02/KIF20A-A24 (66-75) peptide complex in combination with a FITC-labeled anti-human CD8 mAb, and analyzed by flow cytometry.

[3] = test system: HLA-A24 Tgm; experiment: Immunization of HLA-A24 Tgm with LP, ex vivo IFN-gamma ELISPOT; type: in vivo, mouse; settings: HLA-A24 Tgm immunized three times with LP
Description: [FIG. 6C] In Part C, Induction of KIF20A-A24 (66-75) SP-specific CTLs in mice immunized with KIF20A (60-84) LP. HLA-A24 Tgm were immunized with KIF20A (60-84) LP. After the third vaccination with KIF20A (60-84) LP, mouse CD8^+ T-cells in the inguinal lymph nodes were stimulated with BM-DC pulsed with KIF20A-A24 (66-75) SP. The number of IFN-gamma producing murine CD8^+ T-cells was analyzed by ex vivo ELISPOT assay. Representative data from 5 independent experiments with similar results are shown.
The capacity of KIF20A (60-84) LP to prime KIF20A-A24 (66-75) SP-specific CTLs in vivo was examined by an ex vivo IFN-gamma ELISPOT assay. HLA-A24 Tgm were immunized three times with KIF20A (60-84) LP.

Sequence | Absolute number of KIF20A-A24 (66-75) SP-specific CTLs expressing CD107a ([1]; SP+LP culture, after re-stimulation with SP) | Absolute number of KIF20A-A24 (66-75) SP-specific CD8^+ T-cells ([1]; SP+LP with LP-specific bulk CD4+ T-cells and autologous DCs, 1 week, vs SP alone or Control LP+SP) | Expansion of HLA-A24-restricted KIF20A-A24 (66-75) SP-specific CD8^+ T cells (tetramer labeling) ([2]; PBMC stimulated twice with 7 micro-M peptide, day 14) | Absolute numbers of CD8^+ tetramer^+ cells ([2]; PBMC stimulated with peptide, HLA-A24-positive donor) | IFN-gamma production of CD8^+ T-cells of vaccinated mice on stimulation with BM-DCs pulsed with KIF20A-A24 (66-75) SP [3]
CIAEQYHTVLKLQGQVSAKKRLGTN [KIF20A (809-833)] | significantly augmented | significantly increased | – | – | –
DSMEKVKVYLRVRPLLPSELERQED [KIF20A (60-84)] | – | – | induced an expansion | significantly increased | produced IFN-gamma
